In patent publication US7932255B2, “2-aminocarbonyl substituted piperazine or diaza-cyclic compounds as apoptosis protein inhibitors (lap) modulators” (Novartis AG, priority 2006, dated 2011):
pIC50: −log10 of the molar value. Like-named read-outs stand apart in the source and are kept apart here.

Biological target: T1, XIAP (Homo sapiens, UniProt P98170)
T1 construct: GST
Test: Disruption of the Smac peptide-(XIAP)BIR3 protein-protein interaction (Tables 2 and 3)
Type: binding
Method: IC50 values for Series A compounds for XIAP. An assay capable of measuring disruption of the Smac peptide-(XIAP)BIR3 protein-protein interaction is established in the art as described in Example 2. In this assay IAP Inhibitor compounds compete with an immobilized Smac peptide for occupancy of the BIR3 binding pocket of XIAP. The rationale for this strategy results from the mutually exclusive nature of either Caspase 9 or Smac binding to the BIR3 pocket.
Assays are performed and IC50 values are calculated as follows: […]
IC50 values are calculated by logarithmic regression analysis of the percentage inhibition of each compound at 4 concentrations (usually 3- or 10-fold dilution series starting at 10 μM). In each experiment, the actual inhibition by reference compound is used for normalization of IC50 values to the basis of an average value of the reference inhibitor: Normalized IC50=measured IC50 average ref. IC50/measured ref. IC50
Activity determinations of compounds herein using the testing method described herein and as are well known in the art, are used with the following test compounds of formula (I). […] “Activity” as used herein is defined as having IC50 values for IAP target inhibition of less than 10 μM. Specifically, in the table:
IC50 values for Series B compounds are provided for XIAP. Assays are performed as described above using methods well known in the art.

[1] = Series A compounds, Table 2, read-out: XIAP IC50
[2] = Series B compounds, Table 3, read-out: XIXP IC50

T1 sequence (P98170 248-358 limits assumed, species assumed): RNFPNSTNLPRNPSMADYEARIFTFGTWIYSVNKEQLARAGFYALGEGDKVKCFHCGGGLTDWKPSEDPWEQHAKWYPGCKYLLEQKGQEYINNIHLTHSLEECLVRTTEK

Compound	pIC50 [1]	pIC50 [2]
CNC(C)C(=O)NC(C(=O)N1CCN(S(=O)(=O)c2ccccc2)CC1C(=O)NC1CCCc2ccccc21)C(C)C (stereo not drawn) [Compound 2, 4-Benzenesulfonyl-1-[3-methyl-2-(2-methylamino-propionylamino)-butyryl]-piperazine-2-carboxylic acid (1,2,3,4-tetrahydro-naphthalen-1-yl)-amide]	> 5.00	
CN[C@@H](C)C(=O)N[C@H](C(=O)N1CCN(C(=O)c2ccc(NC(C)=O)cc2)C[C@H]1C(=O)NC1CCCc2ccccc21)C(C)C (stereo partly drawn) [Compound 27, (S)-4-(4-Acetylamino-benzoyl)-1-[(S)-3-methyl-2-((S)-2-methylamino-propionylamino)-butyryl]-piperazine-2-carboxylic acid (1,2,3,4-tetrahydro-naphthalen-1-yl)-amide]	> 5.00	
CN[C@@H](C)C(=O)N[C@H](C(=O)N1CCN(Cc2ccccc2)C[C@H]1C(=O)NCc1ccc(F)cc1)C(C)C [Compound 70, (S)-4-Benzyl-1-[(S)-3-methyl-2-((S)-2-methylamino-propionylamino)-butyryl]-piperazine-2-carboxylic acid 4-fluoro-benzylamide]		> 5.00
4-Benzyl-1-[3-methyl-2-(2-methylamino-propionylamino)-butyryl]-piperazine-2-carboxylic acid (1,2,3,4-tetrahydro-naphthalen-1-yl)-amide [Compound 1]	> 5.00	
CN[C@@H](C)C(=O)N[C@H](C(=O)N1CCN(Cc2ccc(C#N)cc2)C[C@H]1C(=O)NC1CCCc2ccccc21)C(C)C (stereo partly drawn) [Compound 43, (S)-4-(4-Cyano-benzyl)-1-[(S)-3-methyl-2-((S)-2-methylamino-propionylamino)-butyryl]-piperazine-2-carboxylic acid (1,2,3,4-tetrahydro-naphthalen-1-yl)-amide]	> 5.00	
CN[C@@H](C)C(=O)N[C@H](C(=O)N1CCN(Cc2ccncc2)C[C@H]1C(=O)NC1CCCc2ccccc21)C(C)C (stereo partly drawn) [Compound 9, (S)-1-[(S)-3-Methyl-2-((S)-2-methylamino-propionylamino)-butyryl]-4-pyridin-4-ylmethyl-piperazine-2-carboxylic acid (1,2,3,4-tetrahydro-naphthalen-1-yl)-amide]	> 5.00	
CN[C@@H](C)C(=O)N[C@H](C(=O)N1CCN(CCC(C)C)C[C@H]1C(=O)NC1CCCc2ccccc21)C(C)C (stereo partly drawn) [Compound 24, (S)-4-(3-Methyl-butyl)-1-[(S)-3-methyl-2-((S)-2-methylamino-propionylamino)-butyryl]-piperazine-2-carboxylic acid (1,2,3,4-tetrahydro-naphthalen-1-yl)-amide]	> 5.00	
CN[C@@H](C)C(=O)N[C@H](C(=O)N1CCN(Cc2ccccc2)C[C@H]1C(=O)N1CCc2ccccc2C1)C(C)C [Compound 86, (S)-N-{(S)-1-[(S)-4-Benzyl-2-(3,4-dihydro-1H-isoquinoline-2-carbonyl)-piperazine-1-carbonyl]-2-methyl-propyl}-2-methylamino-propionamide]		> 5.00
CN[C@@H](C)C(=O)N[C@H](C(=O)N1CCN(Cc2ccccc2OC)C[C@H]1C(=O)NC1CCCc2ccccc21)C(C)C (stereo partly drawn) [Compound 37, (S)-4-(2-Methoxy-benzyl)-1-[(S)-3-methyl-2-((S)-2-methylamino-propionylamino)-butyryl]-piperazine-2-carboxylic acid (1,2,3,4-tetrahydro-naphthalen-1-yl)-amide]	> 5.00	
CN[C@@H](C)C(=O)N[C@H](C(=O)N1CCN(Cc2ccccc2)C[C@H]1C(=O)NCCc1cccc(F)c1)C(C)C [Compound 63, (S)-4-Benzyl-1-[(S)-3-methyl-2-((S)-2-methylamino-propionylamino)-butyryl]-piperazine-2-carboxylic acid [2-(3-fluoro-phenyl)-ethyl]-amide]		> 5.00
CN[C@@H](C)C(=O)N[C@H](C(=O)N1CCN(CC2CC2)C[C@H]1C(=O)NC1CCCc2ccccc21)C(C)C (stereo partly drawn) [Compound 36, (S)-4-Cyclopropylmethyl-1-[(S)-3-methyl-2-((S)-2-methylamino-propionylamino)-butyryl]-piperazine-2-carboxylic acid (1,2,3,4-tetrahydro-naphthalen-1-yl)-amide]	> 5.00	
CN[C@@H](C)C(=O)N[C@H](C(=O)N1CCN(C(=O)c2ccc(F)cc2)C[C@H]1C(=O)NC1CCCc2ccccc21)C(C)C (stereo partly drawn) [Compound 17, (S)-4-(4-Fluoro-benzoyl)-1-[(S)-3-methyl-2-((S)-2-methylamino-propionylamino)-butyryl]-piperazine-2-carboxylic acid (1,2,3,4-tetrahydro-naphthalen-1-yl)-amide]	> 5.00	
CN[C@@H](C)C(=O)N[C@H](C(=O)N1CCN(C(=O)NC2CCCC2)C[C@H]1C(=O)NC1CCCc2ccccc21)C(C)C (stereo partly drawn) [Compound 28, (S)-4-[(S)-3-Methyl-2-((S)-2-methylamino-propionylamino)-butyryl]-piperazine-1,3-dicarboxylic acid 1-cyclopentylamide 3-[(1,2,3,4-tetrahydro-naphthalen-1-yl)-amide]]	> 5.00	
CN[C@@H](C)C(=O)N[C@H](C(=O)N1CCN(Cc2ccccc2)C[C@H]1C(=O)NCCc1cccnc1)C(C)C [Compound 66, (S)-4-Benzyl-1-[(S)-3-methyl-2-((S)-2-methylamino-propionylamino)-butyryl]-piperazine-2-carboxylic acid (2-pyridin-3-yl-ethyl)-amide]		< 5.00
CN[C@@H](C)C(=O)N[C@H](C(=O)N1CCN(Cc2ccccc2)C[C@H]1C(=O)NCC1CCCCC1)C(C)C [Compound 79, (S)-4-Benzyl-1-[(S)-3-methyl-2-((S)-2-methylamino-propionylamino)-butyryl]-piperazine-2-carboxylic acid cyclohexylmethyl-amide]		> 5.00
CN[C@@H](C)C(=O)N[C@H](C(=O)N1CCN(Cc2cccc(Oc3ccccc3)c2)C[C@H]1C(=O)NC1CCCc2ccccc21)C(C)C (stereo partly drawn) [Compound 4, (S)-1-[(S)-3-Methyl-2-((S)-2-methylamino-propionylamino)-butyryl]-4-(3-phenoxy-benzyl)-piperazine-2-carboxylic acid (1,2,3,4-tetrahydro-naphthalen-1-yl)-amide]	> 5.00	
CN[C@@H](C)C(=O)N[C@H](C(=O)N1CCN(Cc2cccnc2)C[C@H]1C(=O)NC1CCCc2ccccc21)C(C)C (stereo partly drawn) [Compound 3, (S)-1-[(S)-3-Methyl-2-((S)-2-methylamino-propionylamino)-butyryl]-4-pyridin-3-ylmethyl-piperazine-2-carboxylic acid (1,2,3,4-tetrahydro-naphthalen-1-yl)-amide]	> 5.00	
CN[C@@H](C)C(=O)N[C@H](C(=O)N1CCN(S(C)(=O)=O)C[C@H]1C(=O)NC1CCCc2ccccc21)C(C)C (stereo partly drawn) [Compound 30, (S)-4-Methanesulfonyl-1-[(S)-3-methyl-2-((S)-2-methylamino-propionylamino)-butyryl]-piperazine-2-carboxylic acid (1,2,3,4-tetrahydro-naphthalen-1-yl)-amide]	> 5.00	
CN[C@@H](C)C(=O)N[C@H](C(=O)N1CCN(Cc2ccccc2)C[C@H]1C(=O)NC1Cc2ccccc2C1)C(C)C [Compound 78, (S)-4-Benzyl-1-[(S)-3-methyl-2-((S)-2-methylamino-propionylamino)-butyryl]-piperazine-2-carboxylic acid indan-2-ylamide]		> 5.00
CN[C@@H](C)C(=O)N[C@H](C(=O)N1CCN(C(=O)OCC(C)C)C[C@H]1C(=O)NC1CCCc2ccccc21)C(C)C (stereo partly drawn) [Compound 31, (S)-4-[(S)-3-Methyl-2-((S)-2-methylamino-propionylamino)-butyryl]-3-(1,2,3,4-tetrahydro-naphthalen-1-ylcarbamoyl)-piperazine-1-carboxylic acid isobutyl ester]	> 5.00	
CN[C@@H](C)C(=O)N[C@H](C(=O)N1CCN(CC(C)C)C[C@H]1C(=O)NC1CCCc2ccccc21)C(C)C (stereo partly drawn) [Compound 8, (S)-4-Isobutyl-1-[(S)-3-methyl-2-((S)-2-methylamino-propionylamino)-butyryl]-piperazine-2-carboxylic acid (1,2,3,4-tetrahydro-naphthalen-1-yl)-amide]	> 5.00	
CN[C@@H](C)C(=O)N[C@H](C(=O)N1CCN(Cc2ccccc2)C[C@H]1C(=O)NC(c1ccccc1)c1ccccc1)C(C)C [Compound 64, (S)-4-Benzyl-1-[(S)-3-methyl-2-((S)-2-methylamino-propionylamino)-butyryl]-piperazine-2-carboxylic acid benzhydryl-amide]		> 5.00
CN[C@@H](C)C(=O)N[C@H](C(=O)N1CCN(S(=O)(=O)c2sccc2-c2ccno2)C[C@H]1C(=O)NC1CCCc2ccccc21)C(C)C (stereo partly drawn) [Compound 42, (S)-4-(3-Isoxazol-5-yl-thiophene-2-sulfonyl)-1-[(S)-3-methyl-2-((S)-2-methylamino-propionylamino)-butyryl]-piperazine-2-carboxylic acid (1,2,3,4-tetrahydro-naphthalen-1-yl)-amide]	> 5.00	
CN[C@@H](C)C(=O)N[C@H](C(=O)N1CCN(Cc2ccccc2)C[C@H]1C(=O)NC1CCCc2ccccc21)C1CCCCC1 (stereo partly drawn) [Compound 55, (S)-4-Benzyl-1-[(S)-2-cyclohexyl-2-((S)-2-methylamino-propionylamino)-acetyl]-piperazine-2-carboxylic acid (1,2,3,4-tetrahydro-naphthalen-1-yl)-amide]	> 5.00	
